Where two headings read alike, the source gives them in different places.
How the values were obtained:
[1] = cited from earlier work
COS-1 cells [2] = assay: Cytotoxicity of drug released into culture medium over timed intervals
[3] = In vitro release of 5-FU from double-layered breath figure PLGA films in PBS; format: physicochemical
Procedure: IN VITRO RELEASE CHARACTERISTICS OF DOUBLE-LAYERED 5-FU-PLGA FILM. […] At specific time intervals, a 1 ml aliquot of the solution was withdrawn and 1 ml of fresh PBS was added to the vial to maintain constant volume. The pH of the medium was monitored during the course of the experiment to verify that the solution was buffered adequately during polymer degradation. Each aliquot was centrifuged to remove any possible debris from the degraded polymer components that could interfere with the absorbance readings and drug release was quantified through the absorbance measured at 266 nm. A standard calibration plot of 5-FU absorbance was constructed to correlate absorbance with drug release levels. All experiments were conducted with triplicate polymer samples.

[4] = tested on: blood-brain barrier (BBB) in vitro model; conditions: coculture with inserts; cited from earlier work
[5] = Tissue distribution of FF and FA after oral fenofibrate in mice (HPLC); format: in vivo; conditions: for concentration at 4 weeks: Balb c/nude, mouse, oral, 50 mg/kg/day
Procedure: ANIMAL STUDIES. […] according to the standard ethically accepted procedure, and the following organs/body fluids were collected: blood, urine, liver, kidneys, spleen, heart, lungs, intact brain and intracranial tumor tissue.
(§1) HIGH PERFORMANCE LIQUID CHROMATOGRAPHY. […] DAD wavelength was set to 285 nm.
For body fluids concentrations are calculated per ml of the body fluid, and in solid tissues per mg of the tissue.

LN-229 cells [6] = assay: Subcellular distribution of FF and FA in LN-229 membrane and cytosolic fractions (HPLC); conditions: per 10^6 LN-229 cells, 25 μM fenofibrate, 24 hrs
Procedure: (§2) Blood plasma, cell culture media, cellular and tissue lysates, were deproteinized by adding 150 μl of acetonitrile to 150 μl of sample, mixed well and centrifuged (15 000 g, 5 min). […] For the subcellular fractionation, subconfluent monolayer cultures were washed in phosphate buffered saline (PBS) twice, then cells were scraped and lysed in 2% sodium dodecyl sulphate (SDS) in PBS. The lysates were sonicated on ice and centrifuged (15 000 g, 5 min). Finally, 150 μl of the supernatant was mixed with the equal volume of acetonitrile, filtered through 0.22 μm centrifuge filter (Sigma) and analyzed by High Performance Liquid Chromatography (HPLC).
(§3) All data were obtained from the Agilent Technologies 1100 apparatus equipped with a line degasser, binary pump (high pressure mixer), autosampler, column thermostat and Diode Array Detector (DAD). The YMCBase, 3 μm 4.6×150 mm analytical column was used and solvent A—50 mM acetic acid in water or solvent B—acetonitrile, with isocratic flow 60%. Flow rate was set to 1 ml/min, column temperature was 20° C., and 5 μl of 0.22 μm filtered sample was injected. DAD wavelength was set to 285 nm.
(§4) Data represent average values from three separate measurements with standard deviation.

LN-229 cells [7] = tested on: LN-229 cells
Text: as §1
HPLC parameters are given in the materials and methods section and in the legend to FIG. 39. Data represent average values from 2 experiments in triplicate (n=6)±SD (SD values for some points are too small to be visible). […] To test this alternative interpretation, we collected conditioned medium from the LN-229 cells cultured for 72 hrs.

[8] = HPLC detection of FF to FA conversion in human blood; format: in vitro ADME; conditions: 50 μM FF in human blood, 4 hours, 37° C.
Text: as §1

LN-229 cells [9] = conditions: human, 24 h, 25 µM
Procedure: as §2, §3, §4

[10] = 120 h
LN-229 cells [11] = assay: Clonogenic assay; format: cell-based, human; conditions: 12 days; drugs at 50 μM or wafer with 1 mg fenofibrate
Procedure: CHLONOGENIC ASSAY. […] Control cells were treated with the vehicle (DMSO). […] All the conditions were tested in duplicate and each experiment was performed at least three times.

[12] = In vitro release of MMC from surface-loaded PLGA films into PBS; format: physicochemical; conditions: films loaded with 1 and 5 μg MMC, absorbance at 364 nm
Procedure: Aliquots (0.65 mL) of the PBS were removed at specific time intervals after immersion of the polymer samples, and absorbance was measured at 364 nm using a UV spectrophotometer (Shimadzu UV-1700 series). After measurement, the aliquots were returned to the vials to maintain constant volume and sink conditions.

COS-1 cells [13] = assay: COS-1 proliferation with MMC-loaded PLGA films, 5-day culture, toluidine blue; format: cell-based; conditions: MMC incorporated into the bulk PLGA film
Procedure: CELL CULTURE AND RELEASE STUDY. For the dose response study, control samples (no drug) and MMC-containing samples were loaded into sterile 12-well plates. […] COS-1 cells (10^4 cells) were added to each well and the cells were incubated at 37° C. in a humidified 5% CO2-95% air atmosphere. The culture medium was replenished on day 3 and day 5 after the cells were plated. After 5 days of culture, the cell accumulation in each culture dish was assessed. The culture medium was removed and the cell layer was gently washed 3 times with 5 mL of phosphate-buffered saline (PBS). […] The amount of dye in each well was measured by the absorbance at 650 nm, which is equivalent to the number of cells, using UV-Visible spectrophotometer (Model UB-1601, Shimadzu scientific instruments Inc, Houston, Tex.).
For the preliminary dose-response study, COS-1 cells (10^4 cells in 1 mL) were added to each well of a 12-well plate. […] After 5 days of culture, the cell accumulation in each culture dish was assessed by a modification of a previously described procedure (Leavesley D I, Ferguson G D, Wayner E A, et al. Requirement of the integrin beta 3 subunit for carcinoma cell spreading or migration on vitronectin and fibrinogen. J Cell Biol. 1992; 117:1101-1107.) Briefly, culture medium was removed and the cell layer was gently washed 2 times with 2 mL of phosphate-buffered saline (PBS). […]

[14] = Stability of MMC in PBS and after spin-casting in PLGA-dichloromethane; format: physicochemical
[15] = In vitro release of model drugs (salicylic acid, ibuprofen) from breath figure and non-porous PLGA and PEG/PLGA films in PBS; format: physicochemical; conditions: PBS 37° C.
Procedure: Ibuprofen and Salicylic acid were used as model drugs to characterize the release profiles of breath figure polymer films. The equivalent non-porous smooth films were used as controls. In vitro release studies were carried out by incubating 1.5 cm side square drug incorporated films in 15 ml of PBS medium at 37° C. and stirred gently using a magnetic stirrer. At specific time intervals, 0.650 ml aliquots of the solution was withdrawn and centrifuged to remove any possible debris from the degrading polymer. Then, the aliquot was returned to the vial after measuring the absorbance to quantify drug release. The pH of the medium was monitored during the course of the experiment to verify that the solution is buffered adequately during polymer degradation. Ibuprofen and salicylic acid release were quantified through the absorbance at 221 and 296 nm, respectively. Standard calibration plots of ibuprofen and salicylic acid absorbance were constructed to correlate absorbance with drug release levels. All experiments were conducted in triplicate.
The release profile of breath figure PLGA and PEG/PLGA films was carried out in PBS medium (pH 7.4, 0.1M), incubated at 37° C. A non-porous film with the equivalent amount of drug dispersed was used as control. […] FIG. 14 illustrates the cumulative release of salicylic acid from the PLGA film and PEG/PLGA film, respectively, for a period of 2 days. […]

[16] = blood, read-out: concentration in Blood
[17] = urine, read-out: concentration in Urine
[18] = mice, micronized fenofibrate 50 mg/kg/day oral, n = 4
[19] = mice, micronized fenofibrate 50 mg/kg/day oral, n = 6

With O=c1[nH]cc(F)c(=O)[nH]1 [5-FU, 5-fluorouracil] as the compound, how does the “water solubility (in words)” value [1] read?
Its value is “highly water soluble”.

And the “killing efficiency (percent of cells killed vs PLGA film without drug)” value (COS-1 cells [2]; double-layered film with 0.1 mg 5-FU, samples from >15 days of incubation)?
Its value is “about 75%”.

What about the “total incubation with culture medium until maximum cytotoxicity” value (COS-1 cells [2]; double-layered film with 0.4 mg 5-FU) of the same compound?
Its value is 4 to 5 days.

What about the “continuous release of drug after the lag phase” value [3] of the same compound?
Its value is 21 days.

What about the “duration of sharp increase in drug release after the delay” value [3] of the same compound?
Its value is 10 days.

And the “lag period after the sharp release phase” value [3]?
The value was 2 to 3 days.

What about the “delay of the initial release by sealing” value ([3]; sealed top layer) of the same compound?
Its value is 3 to 5 days.

What about the “burst effect in the first 24 hours of incubation” value ([3]; sealed top layer, 0.1, 0.4, 2 mg 5-FU) of the same compound?
The value was “no burst effect”.

For CC(C)(Oc1ccc(C(=O)c2ccc(Cl)cc2)cc1)C(=O)O [FA, fenofibric acid], which BBB permeability coefficient [4] is on record?
The BBB permeability coefficient was 11.3 ×10⁻⁶ cm/s.

And the concentration at 4 weeks [5, 16]?
The concentration at 4 weeks was 3.33 µM.

And the concentration at 4 weeks [5, 17]?
Its concentration at 4 weeks is 5.34 µM.

What about the “concentration in Intracranial tumor” value ([5]; mice with intracranial LN-229, micronized fenofibrate 50 mg/kg/day oral, n = 6) of the same compound?
The value was 0 nmol/mg.

What about the “concentration in Heart” value [5, 18] of the same compound?
Its value is 1.31 ± 1.4 nmol/mg.

And the “concentration in Spleen” value [5, 18]?
Its value is 1.33 ± 1.1 nmol/mg.

What about the “concentration in Brain” value ([5]; mice, micronized fenofibrate 50 mg/kg/day oral, n = 5) of the same compound?
The value was 0.06 ± 0.1 nmol/mg.

What about the “concentration in Kidneys” value [5, 19] of the same compound?
Its value is 1.5 ± 0.8 nmol/mg.

What about the “concentration in Liver” value [5, 19] of the same compound?
Its value is 11.35 ± 3.9 nmol/mg.

What about the “concentration in Lungs” value [5, 19] of the same compound?
Its value is 0.36 ± 04 nmol/mg.

And the “amount in cytosolic fraction” value (LN-229 cells [6])?
Its value is 0.57 nmol.

What about the “FA detected after FF incubation in filtered conditioned medium” value (LN-229 cells [7]) of the same compound?
Its value is “did not detect any traces”.

Which “decrease of FF peak in human blood” value [8] does the source give for CC(C)OC(=O)C(C)(C)Oc1ccc(C(=O)c2ccc(Cl)cc2)cc1 [FF, fenofibrate] here?
Its value is “about 5 fold”.

And the concentration at 4 weeks [5, 16]?
The concentration at 4 weeks was 0 µM.

And the concentration at 4 weeks [5, 17]?
Its concentration at 4 weeks is 0 µM.

What about the “amount in cytosolic fraction” value (LN-229 cells [9]) of the same compound?
The value was 2.40 nmol.

And the “stability in culture medium” value [10]?
The value was “at least 120 h”.

What about the “time of maximal intracellular concentration” value (LN-229 cells [7]; human, 50 µM) of the same compound?
The value was 24 h.

With Cc1ccc(C)c(OCCCC(C)(C)C(=O)O)c1 [Gemfibrozil, gemfibrozil] as the compound, how does the “inhibition of clonal growth of LN-229 cells” value (LN-229 cells [11]) read?
The value was “not able to reproduce them”.

Which results are given for CO[C@@]12[C@H](COC(N)=O)C3=C(C(=O)C(C)=C(N)C3=O)N1C[C@@H]1N[C@@H]12 [MMC, mitomycin C]?
active drug released from the film [12]: 20-40%; toxic effect of degraded products on COS-1 cells (COS-1 cells [13]): no toxic effect; loss of activity in PBS at 23 degrees C. ([14]; 50 day incubation, 23 degrees C.): approximately 15%; loss of activity in PBS at 37 degrees C. ([14]; 50 day incubation, 37 degrees C.): ~50%; activity in PBS at 4 degrees C. ([14]; 50 days, 4 degrees C.): retained its activity; loss of activity after dissolving in PLGA-dichloromethane and spin-casting ([14]; spin-cast PLGA film): 100%

Which “inhibition of clonal growth of LN-229 cells” value (LN-229 cells [11]) does the source give for Cc1cccc(Nc2cc(Cl)nc(SCC(=O)O)n2)c1C [Wy-14,643] here?
The value was “not able to reproduce them”.

With CC(C)Cc1ccc(C(C)C(=O)O)cc1 (stereo not shown) [ibuprofen] as the compound, how does the water solubility [1] read?
The water solubility was under 500 µg/mL.

And the “duration of release from films” value [15]?
Its value is “at least 14 days”.

Which water solubility [1] does the source give for O=C(O)c1ccccc1O [salicylic acid] here?
The water solubility was over 2000 µg/mL.

From US10653822B2, “Drug delivery devices and methods of making and using same” (The Administrators of the Tulane Educational Fund, priority 2012, dated 2020)
